In PMC5522529, “Mechanisms of Paradoxical Activation of AMPK by the Kinase Inhibitors SU6656 and Sorafenib” (Cell Chemical Biology, 2017):
Like-named read-outs stand apart in the source and are kept apart here.

Assays:
[1] = test system: ACC; assay: ACC phosphorylation in HEK293 cells (western blot); format: cell-based, human; conditions: 1 hr
Method: (§1) Figure 1 SU6656 Activates AMPK but Not AMPK-Related Kinases (A) HEK293 cells were incubated with the indicated concentrations of SU6656 or berberine (300 μM) for 1 hr; total AMPK activity was assayed in immunoprecipitates (top; mean ± SEM, n = 4), and phosphorylation of AMPK (Thr172), ACC (Ser80), and Raptor (Ser792) analyzed by western blotting (bottom; n = 2). (B) HEK293 cells were incubated with 100 μM SU6656 (1 hr), AMPK complexes containing α1, α2, β1, and β2 immunoprecipitated using isoform-specific antibodies, and AMPK activity measured (mean ± SEM, n = 4). (C) HeLa cells stably expressing LKB1 ([Fogarty et al., 2010]) were incubated with 100 μM SU6656 for 1 hr, AMPK or individual ARKs immunoprecipitated, and kinase assays carried out (antibodies that distinguish MARK2/MARK3 were not available, so they were assayed together). Results are means ± SEM (n = 2). In all panels, asterisks indicate significant differences from controls without SU6656. *p < 0.05, **p < 0.01, ****p < 0.0001.
(B) WT or RG cells were treated as in (A) and nucleotides extracted for analysis (mean ± SD, n = 3). […] (E) (See also Figure S2) Time courses of cellular oxygen uptake before and after addition of the indicated concentrations of sorafenib (SO, μM), SU6656 (100 μM) or phenformin (PHEN, 10 mM) (mean ± SEM, n = 4). (F) Effect of various concentrations of sorafenib or phenformin (10 mM) on activation (top, mean ± SEM, n = 3) or phosphorylation (bottom) of AMPK in cells expressing wild-type AMPK-γ2 (WT) or the R531G mutant AMPK-γ2 (RG). In all panels, asterisks show significant differences from DMSO controls (ns, not significant). […]
Cells were incubated for 60 min and AMPK activity measured; results in the top panel are means ± SEM (n = 8), with significant differences from the DMSO control indicated (ns, not significant). […]
SDS-PAGE was performed using precast Bis-Tris 4–12% gradient polyacrylamide gels in the MOPS buffer system (ThermoFisher Scientific). […] Protein concentrations were determined by Coomassie Blue binding with bovine serum albumin as standard ([Bradford, 1976]). […]

[2] = test system: HEK293 cells; assay: Cellular AMP:ATP and ADP:ATP ratios; format: cell-based, human; conditions: 1 hr
Method: (B) WT or RG cells were treated as in (A) and nucleotides extracted for analysis (mean ± SD, n = 3). […] (E) (See also Figure S2) Time courses of cellular oxygen uptake before and after addition of the indicated concentrations of sorafenib (SO, μM), SU6656 (100 μM) or phenformin (PHEN, 10 mM) (mean ± SEM, n = 4). (F) Effect of various concentrations of sorafenib or phenformin (10 mM) on activation (top, mean ± SEM, n = 3) or phosphorylation (bottom) of AMPK in cells expressing wild-type AMPK-γ2 (WT) or the R531G mutant AMPK-γ2 (RG). In all panels, asterisks show significant differences from DMSO controls (ns, not significant). In (B), daggers (†) show significant differences between results in WT and RG cells. *p < 0.05, **p < 0.01, ***p < 0.001, ****p < 0.0001, ^††††p < 0.0001.
Cells were incubated for 60 min and AMPK activity measured; results in the top panel are means ± SEM (n = 8), with significant differences from the DMSO control indicated (ns, not significant). The bottom panels show western blots from the same experiment (n = 2). (B) Analysis of AMP:ATP and ADP:ATP ratios from a parallel experiment to that in (A). Results are means ± SEM (n = 3), with significant differences from the DMSO control indicated. *p < 0.05, **p < 0.01, ****p < 0.0001.
The levels of AMP, ADP and ATP were measured using a TSQ Quantiva interfaced with Ultimate 3000 Liquid Chromatography system (ThermoScientific), equipped with a porous graphitic carbon column (HyperCarb 30x1mm ID 3 μm; Part No: C-35003-031030, Thermo-Scientific). Mobile phase buffer A consisted of 0.3% (v/v) formic acid adjusted to pH 9 with ammonia prior to a 1:10 dilution. Mobile phase buffer B was 80% (v/v) acetonitrile. The column was maintained at a controlled temperature of 30°C and was equilibrated with 10% buffer B for 5 minutes at a constant flow rate of 0.06 mL/min. Aliquots of 1 μL of each sample were loaded onto the column and compounds eluted with a linear gradient of 10%-60% buffer B over 9 min. Buffer B was then increased to 100% within 1 min, and the column washed for 5 min with 100% Buffer B. Eluents were sprayed into the TSQ Quantiva using Ion Max NG ion source with ion transfer tube temperature set to 350°C and vaporizer temperature 125°C. The TSQ Quantiva was run in negative mode with a spray voltage of 2600, sheath gas 40 and Aux gas 10. Levels of ATP, ADP and AMP were measured using multiple reactions monitoring mode (MRM) with optimised collision energies and radio frequencies previously determined by infusing pure compounds. Three transitions were used to monitor each of the three compounds, ATP (505.92>158.98, 505.92>408.12 and 505.92>426.12), ADP (426.98>158.98, 426.98>328.78 and 426.98>409.09) and AMP (345.96>134.20, 345.96>151.27 and 345.96>211.12).

[3] = test system: LKB1 versus AMPK; set-up: method as in MRC Kinase Inhibitor Database; conditions: ref MRC Kinase Inhibitor Database; cited from earlier work
[4] = test system: AMPK; assay: AMPK activity and Thr172 phosphorylation in HEK293 cells; format: cell-based, human; conditions: 1 hr
Method: as §1, with “0.0001. […]” for “0.0001.”
Endogenous AMPK was immunoprecipitated using the specified antibodies (for total AMPK, an equal mixture of anti-α1 and –α2 antibodies) and assayed at 200 μM ATP ([Hardie et al., 2000], [Towler et al., 2008]) using the AMARA peptide ([Dale et al., 1995]) as substrate, except for assays of allosteric activation by AMP (Figure 5A) where the SAMS peptide was used as substrate with 2 mM ATP ([Gowans et al., 2013]). The AMPK-related kinases SIK1, SIK2, SIK3, SNARK, MARK2/3 and MARK4 were immunoprecipitated and assayed as previously described ([Lizcano et al., 2004]) in lysates of Hela cells stably expressing LKB1 ([Fogarty et al., 2010]). LKB1 was assayed using the LKBtide peptide as substrate ([Sakamoto et al., 2004]).

[5] = biological target: α2 kinase domain (α2-KD, residues 1–310) (Homo sapiens, UniProt P54646); conditions: read-out: Km for ATP; α2-KD phosphorylated using CaMKK2
Chain of α2 kinase domain (α2-KD, residues 1–310) (P54646 1-310): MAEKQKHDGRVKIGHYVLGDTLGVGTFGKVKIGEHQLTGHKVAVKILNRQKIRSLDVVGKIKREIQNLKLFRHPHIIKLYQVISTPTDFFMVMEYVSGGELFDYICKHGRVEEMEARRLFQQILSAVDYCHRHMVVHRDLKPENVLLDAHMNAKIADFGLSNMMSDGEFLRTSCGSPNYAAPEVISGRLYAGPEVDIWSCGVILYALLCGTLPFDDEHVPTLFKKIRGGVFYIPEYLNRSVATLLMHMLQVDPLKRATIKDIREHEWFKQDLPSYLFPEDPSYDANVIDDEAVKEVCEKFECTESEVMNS

[6] = test system: Erk1/2; assay: Erk1/2 phosphorylation in SYF cells; format: cell-based, mouse; conditions: SU6656 100 μM, PP2 100 nM
[7] = test system: AMPK; format: cell-based, mouse; conditions: SYF cells, 1 hr
Method: We next tested the effect of SU6656 in SYF cells, which are mouse embryo fibroblasts (MEFs) with null alleles for Src, Yes, and Fyn, the three Src kinases expressed in MEFs ([Klinghoffer et al., 1999]).
Top: AMPK activity (mean ± SEM, n = 4); bottom: western blots showing phosphorylation of Thr172 on AMPK, and of ERK1/2, in cells treated with DMSO (control), SU6656 (100 μM), or PP2 (100 nM) (n = 2). (B) As (A), but in SYF cells. (C) HeLa cells were transfected with DNAs encoding GFP alone, or GFP fused to WT, Y261F/Y365F (FF), or Y36F/Y261F/Y365F (FFF) mutants of LKB1; cells were treated with increasing concentrations of SU6656 for 1 hr and AMPK activity determined (mean ± SEM, n = 4). See also Figure S1. (D) HEK293 cells were transfected with DNAs encoding FLAG-tagged AMPK-α2 with or without a Y436F mutation. Cells were incubated with DMSO (control), 100 μM SU6656, 10 mM phenformin, or 10 μM A23187 for 1 hr; AMPK complexes were immunoprecipitated using anti-FLAG antibody and assayed. The top panels show kinase activities (mean ± SD, n = 3); the bottom panels show blots from the same experiment (n = 2). In all panels, asterisks indicate significant differences from DMSO controls; in (D), there were no significant differences between the WT and Y463F mutant. **p < 0.01, ****p < 0.0001. […]

[8] = test system: Erk1/Erk2; assay: Erk1/Erk2 phosphorylation in HEK293 cells (western blot); format: cell-based, human; conditions: SU6656 100 μM, PP2 100 nM

CC1(C)C(=O)N([C@H]2CCc3c(O)cccc32)c2nc(Nc3cccc(CN4CCCC4)c3)ncc21 [MRT199665]
ACC phosphorylation [1]: inhibition of phosphorylation
cellular AMP:ATP and ADP:ATP ratios [2]: not associated with changes in AMP:ATP or ADP:ATP ratios
potency of LKB1 inhibition relative to AMPK inhibition [3]: inhibition of LKB1 was less potent than that of AMPK
AMPK activity / Thr172 phosphorylation [4]: modest increase in AMPK activity and Thr172 phosphorylation

Nc1ncnc2c1ncn2[C@@H]1O[C@H](COP(=O)(O)OP(=O)(O)OP(=O)(O)O)[C@@H](O)[C@H]1O [ATP]
Km [5]: 151 ± 7 µM

CC(C)(C)n1nc(-c2ccc(Cl)cc2)c2c(N)ncnc21 [PP2]
Erk1/2 phosphorylation [6]: had no effect on Erk1/2
AMPK activity / Thr172 phosphorylation [7]: still had no effect on AMPK
Erk1/Erk2 phosphorylation [8]: reduced phosphorylation of Erk1/Erk2
AMPK activity / Thr172 phosphorylation [4]: had no effect on AMPK activity or Thr172 phosphorylation

c1cc(-c2cnn3cc(-c4ccc(OCCN5CCCCC5)cc4)cnc23)ccn1 [compound C]
potency of LKB1 inhibition relative to AMPK inhibition [3]: inhibit LKB1 with similar potency to AMPK
